Consider six compounds from EP4663632A1, “COMPOUNDS USEFUL FOR THE MODULATION OF THE ACTIVITY OF STING” (Sulis Therapeutics ApS, priority 2024, dated 2025).

Broadly, the pIC50 is the IC50 on a negative log10 scale, so that one unit is a factor of ten. What is called DC50 is the midpoint of the concentration-degradation curve. The low end stands for degradation at low concentration, the high end for degradation only at high concentration.

Molecules are shown by their SMILES. pIC50: −log10 of the molar value.

For test [1], the target named is T1, STING (Homo sapiens, UniProt Q86WV6). Briefly: Western Blot analysis of STING phosphorylation in human fibroblast cells (STING agonism). Type of test: cell-based. Details: host or cells: HFF-1 human foreskin fibroblasts. The settings on record: 7.2µM-3.6nM; 24h. The method, then: Human fibroblast were treated with a titration of E22, E9, E14 and E16 (7.2µM-3.6nM) for 24h prior to cell lysis and subsequently total STING, pSTING and Vinculin were assessed by western blot using rabbit anti-STING (1:1000), anti-pSTING (1:1000), anti-Vinculin (1:1000) and 2nd anti-rabbit-HRP (1:10.000) or anti-mouse-HRP (1:7500). Proteins were visualized using ImageQuant800. Control cells included untreated cells and cells treated with 300nM diABZI C3.
A general note: In western blotting, separated proteins are transferred to a membrane and probed.

Test [2] concerns the target T2, C-terminal domain (CTD) of human STING (Homo sapiens, UniProt Q86WV6). As to the kind of experiment: STING binding FP assay II. Also noted: recombinant human STING protein (155-379). To be noted: 7 nM STING. The method, then:
(§1) The interaction between molecules and the C-terminal domain (CTD) of human STING was evaluated using a competition binding assay. In this assay, recombinant human STING protein (155-379) and a STING binding fluorescent probe were employed. Upon binding of the probe to STING, the rotation of the fluorescent probe is slowed due to the larger molecular size of the protein-bound complex. As a result, emitted light retains its plane of polarization, leading to an increase in fluorescence polarization. Molecules competing for the probe binding site displace the probe, which leads to rapid randomization of the polarization plane of the emitted light and a subsequent decrease in measured fluorescence polarization signal. Change in polarization was measured, allowing a comparative evaluation of the binding affinities of different compounds to the target protein.
(§2) The assay was performed in 96-well plates (ThermoFisher, cat.# 237108) containing 100µl : 10 µL test compound in 10% DMSO and buffer A (150 mM NaCl, 50 mM HEPES pH 7.5, 1 mM DTT) + 90 µL prepared master mix solution of: 4 nM fluorescein-labelled STING ligand (Probe 1; synthesis described above) in buffer A + 0.055% Tween-20 (v/v) and 35 nM STING in buffer A. Post mixing, plates were agitated at 600rpm and incubated for 20 min at room temperature. Subsequent measurements of the fluorescence polarization signal were made on a BioTek Synergy-H1 plate reader, using a polarization filter; Exc: 485/20 nm, Em: […]) with a gain-setting of 75. IC50 values were determined using a standard non-linear regression four-parameter curve fit in Graphpad Prism.
The procedure for STING binding FP assay II is the same as described for STING binding FP assay I, except for a lower STING concentration. In STING binding FP assay II, a concentration of 7 nM STING in buffer A was used.

Test [3] has as its target T2, C-terminal domain (CTD) of human STING. As to the kind of experiment: STING binding FP assay I. Also noted: recombinant human STING protein (155-379). The settings on record: 35 nM STING, 4 nM Probe 1. How it is done: as §1, §2
The target of test [4] is T1, STING. As to the kind of experiment: Western Blot analysis for STING degradation in H596 cells. It counts as cell-based. To be noted: 24h; reference protein beta-actin. How it is done:
(§3) For cell lysing for Western Blot analysis cell culture plates were brought to ice, supernatant was removed by aspiration and cells washed 2x in ice-cold DPBS. Cells were lysed in 65 µL of RIPA buffer supplemented with cOmplete ULTRA Tablets protease inhibitor cocktail, PIERCE Phosphatase inhibitor mini tablet, Benzonase and 10mM NaF for 20 min on ice. Lysates were collected, cleared by centrifugation (13000xg for 10 min at 4°C). Samples were either analysed directly or stored at -80°C until analysis.
(§4) For Western Blotting, total protein concentration in each lysate was determined using PIERCE Gold BCA Assay kit according to manufactures protocol. 6 µg of total protein was mixed with 2x Laemmli buffer containing DTT, boiled for 5 min at 95°C, cooled on ice and loaded into each well of a 4-20% Criterion TGX gel. Proteins were separated by electrophoresis, by running for 1h at 150V. After separation proteins were blotted onto a PVDF membrane by semi-dry transfer using Trans-Blot turbo system at pre-defined BioRad MIDI protocol; 25V, 1A (fixed) for 30 min. Membranes were blocked for 1h in 5% skim milk in TBS-T20 on a rocker at room temperature followed by washing and exposure to primary antibodies against human STING 1:1000 (Cell Signalling, #13647) or loading controls Vinculin 1:1000 (Cell Signalling, #13901) or beta-Actin 1:10000 (Sigma, A5441) all diluted in 5% BSA in TBS-T20. Membranes were probed over night at 4°C on a rocker. Membranes were washed 3x in TBS-T20 followed by exposure to secondary HRP-conjugated anti-rabbit antibody or HRP-conjugated anti-mouse antibody diluted 1:10000 in 5% skim milk in TBS-T20 as appropriate. Membranes were incubated for 1h at room temperature on a rocker, then washed 3x in TBS-T20.
(§5) For generating DC50 values, the intensity of individual bands was measured using imaged and expression levels were calculated as a ratio of STING intensities vs. Reference protein intensities and normalized to DMSO control. The normalized ratios were plotted on a XY curve in GraphPad Prism where DC50 was estimated using a 4-parameter non-linear regression fitting curve.
To assess STING degradation in H596 cells (ATCC, HTB-178) cells were seeded at a density of 100.000 cells/well in 24-well Nunclon Delta surface treated culture plate in RPMI-1640 growth medium (supplemented with 10% FBS, 1% Pen-strep). Cells were incubated over-night at 37°C 5% CO2 to allow adhesion. Next day growth medium was renewed and a 5x concentration of test compounds (2.5% DMSO) diluted in growth medium were added to the appropriate well. Final DMSO concentration was 0.5%. Cell culture plates were returned to the incubator for additional 24h. Final test compound concentrations were 0.22 µM, 0.67 µM, 2 µM and 6 µM.
For cell lysis, western blotting and data analysis, the methods described above for HFF-1 cells were applied.

The target of test [5] is T2, C-terminal domain (CTD) of human STING. As to the kind of experiment: STING binding FP assay III. Details: recombinant human STING protein (155-379). To be noted: 10 nM STING (FP assay III according to the text); read-out: STING binding FP assay II, IC50. How it is done:
as §1, §2
The procedure for STING binding FP assay III is the same as described for STING binding FP assay I, except for a lower STING concentration. In STING binding FP assay III, a concentration of 10 nM STING in buffer A was used.

Test [6] deals with T1, STING. Briefly: Western Blot analysis for S1 STING ligand antagonism in primary human skin fibroblasts. It counts as cell-based. Details: host or cells: HFF-1 human foreskin fibroblasts. The settings on record: 5 µM; 2 h or 1 h before, simultaneously with, or 15 minutes after 0.3 µM diABZI. How it is done: To assess whether S1 STING ligands inhibit STING activation, primary human skin fibroblasts (Figure 5) or HFF-1 cells (Figure 6) were treated with various compounds which comprise only an S1 ligand domain and a Linker domain before undergoing Western Blot analysis as described below. Compounds A9, A11, A26 and A30 used in the following experiments share a common S1 ligand, which is also shared by Example compounds 1, 3, 5-29, 33-38.
Cells were incubated with A9 or A11 for 1 or 2 hours before addition of diABZI c3, treated with test compound and diABZI c3 simultaneously, or treated with A9 or A11 after 15 minutes incubation with diABZI c3. As a control, cells were also treated with diABZI c3 alone.

The target in test [7] is T1, STING. As to the kind of experiment: Western Blot analysis of inhibition of STING activation in HFF-1 cells. It counts as cell-based. Details: host or cells: HFF-1 human foreskin fibroblasts. The settings on record: for STING, TBK1 and IRF1 phosphorylation: 2 h or 5 h. How it is done: To assess whether S1 STING ligands inhibit STING activation, primary human skin fibroblasts (Figure 5) or HFF-1 cells (Figure 6) were treated with various compounds which comprise only an S1 ligand domain and a Linker domain before undergoing Western Blot analysis as described below.
The cells were lysed and analysed on WB. […] The WB membrane was probed for p-STING, STING, p-IRF3, p-TBK1, and Vinculin.

Test [8] addresses T1, STING. As to the kind of experiment: Western Blot analysis for STING degradation (DC50) in HFF-1 cells. It counts as cell-based. Also noted: host or cells: HFF-1 human foreskin fibroblasts. The settings on record: 24h; reference protein beta-actin. How it is done:
To assess STING degradation in human foreskin fibroblasts HFF-1 cells (ATCC, SCRC-1041) cells were seeded at a density of 60.000 cells/well in 24-well Nunclon Delta surface treated culture plate in DMEM growth medium (supplemented with 10% FBS, 1% Pen-strep). Cells were incubated over-night at 37°C 5% CO2 to allow adhesion. Next day growth medium was renewed and a 5x concentration of test compounds (2.5% DMSO) diluted in growth medium were added to the appropriate well. The final DMSO concentration were 0.5%. Cell culture plates were returned to the incubator for additional 24h.
as §3, §4, §5

T2 sequence (Q86WV6 155-379): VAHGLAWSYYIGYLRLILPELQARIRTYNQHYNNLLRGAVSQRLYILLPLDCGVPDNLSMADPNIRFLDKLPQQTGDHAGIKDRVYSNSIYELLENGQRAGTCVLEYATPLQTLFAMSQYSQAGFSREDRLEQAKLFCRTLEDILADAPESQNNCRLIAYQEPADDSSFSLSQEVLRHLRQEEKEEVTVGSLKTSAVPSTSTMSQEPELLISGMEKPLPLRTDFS
T1 sequence (Q86WV6 whole entry): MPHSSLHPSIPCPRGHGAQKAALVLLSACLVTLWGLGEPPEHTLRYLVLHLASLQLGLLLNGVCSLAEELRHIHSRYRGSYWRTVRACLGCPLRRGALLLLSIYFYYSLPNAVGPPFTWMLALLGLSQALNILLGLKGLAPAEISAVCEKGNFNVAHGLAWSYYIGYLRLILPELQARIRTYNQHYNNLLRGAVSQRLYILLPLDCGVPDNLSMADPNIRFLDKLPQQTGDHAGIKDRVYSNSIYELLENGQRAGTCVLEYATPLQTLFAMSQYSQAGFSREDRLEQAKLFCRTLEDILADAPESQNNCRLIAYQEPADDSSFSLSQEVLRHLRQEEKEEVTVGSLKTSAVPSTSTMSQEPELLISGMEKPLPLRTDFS

For `CCn1nc(C)cc1C(=O)N=c1n(C)c2cc(C(N)=O)ccc2n1CCC(CCn1c(=NC(=O)c2cc(C)nn2CC)n(C)c2cc(C(N)=O)ccc21)OCC(=O)NCCOCCOCCOCCOCCOc1cccc(C(=O)c2csc([C@@H]3CCCN3C(=O)[C@@H](NC(=O)[C@H](C)NC)C3CCCCC3)n2)c1` (some centres unmarked) [Example 9], the “STING phosphorylation (pSTING)” value at STING [1] is given as “no STING phosphorylation was observed”. Besides, in test [2], the pIC50 is 8.08.

As for `CCn1nc(C)cc1C(=O)N=c1n(C)c2cc(C(N)=O)ccc2n1CCC(CCn1c(=NC(=O)c2cc(C)nn2CC)n(C)c2cc(C(N)=O)ccc21)OCC(=O)O` (centres unmarked) [Building Block G-4, (3-{5-Carbamoyl-2-[(1-ethyl-3-methyl-5-pyrazolyl)carbonylimino]-3-methyl-2,3-dihydro-1H-1,3-benzimidazol-1-yl}-1-(2-{5-carbamoyl-2-[(1-ethyl-3-methyl-5-pyrazolyl)carbonylimino]-3-methyl-2,3-dihydro-1H-1 ,3-benzimidazol-1-yl}ethyl)propoxy)acetic acid], in test [3], the pIC50 was over 7.52.

As for `CCn1nc(C)cc1C(=O)N=c1n(C)c2cc(C(N)=O)ccc2n1CCC(CCn1c(=NC(=O)c2cc(C)nn2CC)n(C)c2cc(C(N)=O)ccc21)OCC(=O)NCCOCCOCCOCCOCCC(=O)N(C)CCOCCOCCOCCOCCC(=O)N[C@H](C(=O)N1C[C@H](O)C[C@H]1C(=O)N[C@@H](C)c1ccc(-c2scnc2C)cc1)C(C)(C)C` (some centres unmarked) [Example 27], at STING [4], the DC50 was under 200 nM. Also, in test [5], the pIC50 is 8.35.

For `CCn1nc(C)cc1C(=O)N=c1n(C)c2cc(C(N)=O)ccc2n1CCC(CCn1c(=NC(=O)c2cc(C)nn2CC)n(C)c2cc(C(N)=O)ccc21)OCC(=O)N1CCC[C@H]1c1cccc(OC)c1` (stereo partly drawn) [Example A11, 1-(3-{2-[(S)-2-(3-Methoxyphenyl)-1-pyrrolidinyl]-2-oxoethoxy}-5-{5-carbamoyl-2-[(1-ethyl-3-methyl-5-pyrazolyl)carbonylimino]-3-methyl-2,3-dihydro-1H-1,3-benzimidazol-1-yl}pentyl)-2-[(1-ethyl-3-methyl-5-pyrazolyl)carbonylimino]-3-methyl-2,3-dihydro-1H-1,3-benzimidazole-5-carboxamide], at STING [6], the LC3B lipidation entry was “reduced LC3B lipidation”, the “P-STING intensity (activation of STING)” value is reported as “reduced intensity of P-STING” and the P-TBK1 intensity result is listed as “reduced P-TBK1 intensity”. For the same compound, the “STING, TBK1 and IRF1 phosphorylation” value on STING [7] (5 µM for 15 min prior to 300 nM diABZI) is “lower compared to cells treated with diABZI c3 alone”. Moreover, the “STING, TBK1 and IRF1 phosphorylation” value on STING [7] (5 µM for 15 min prior to 8 µg/mL cGAMP) is “lower compared to cells treated with cGAMP alone”. The “phosphorylation of STING, IRF1 or TBK1 (agonism)” value at STING [7] (compound as single agent, no activation) was “no phosphorylation of STING, IRF1 or TBK1 was observed”.

For `CCn1nc(C)cc1C(=O)N=c1n(C)c2cc(C(N)=O)ccc2n1CCC(CCn1c(=NC(=O)c2cc(C)nn2CC)n(C)c2cc(C(N)=O)ccc21)OCC(=O)NCCOCCOCCOCCOc1cccc(C(=O)c2csc([C@@H]3CCCN3C(=O)[C@@H](NC(=O)[C@H](C)NC)C3CCCCC3)n2)c1` (some centres unmarked) [Example 22], the “STING phosphorylation (pSTING)” value at STING [1] is reported as “no STING phosphorylation was observed”.

Take `CCn1nc(C)cc1C(=O)N=c1n(C)c2cc(C(N)=O)ccc2n1CCC(CCn1c(=NC(=O)c2cc(C)nn2CC)n(C)c2cc(C(N)=O)ccc21)OCC(=O)NCCOCCOCCOCCOCCC(=O)NCCOCCOCCNc1cccc2c1C(=O)N(C1CCC(=O)NC1=O)C2=O` (centres unmarked) [Example 23, N-[2-(2-{2-[2-(2,6-Dioxo-3-piperidyl)-1,3-dioxo-4-isoindolinylamino]ethoxy}ethoxy)ethyl]15-{[(3-{5-carbamoyl-2-[(1-ethyl-3-methyl-5-pyrazolyl)carbonylimino]-3-methyl-2,3-dihydro-1H-1,3-benzimidazol-1-yl}-1-(2-{5-carbamoyl-2-[(1-ethyl-3-methyl-5-pyrazolyl)carbonylimino]-3-methyl-2,3-dihydro-1H-1,3-benzimidazol-1-yl}ethyl)propoxy)methyl]carbonylamino}-4,7,10,13-tetraoxapentadecanamide]: the pIC50 in test [5] was 8.54. The same compound had a DC50 on STING [8] of 200 to 1000 nM.
